{"source": "patent US7737139B2", "about": "“Sulfonic acids, their derivatives and pharmaceutical compositions containing them” (Dompe PHA.R.MA S.p.A., priority 2003, dated 2010)", "note": "Where a name gives a salt, the structure may show the parent alone.", "data": [{"tested_on": "human PMNs", "assay": "IL-8 induced human PMN chemotaxis assay", "format": "cell-based", "conditions": "c = 10^−8 M; human PMNs chemotaxis induced by IL-8 (100 ng/mL)", "description": "The compounds of formula (I) were evaluated in vitro for their ability to inhibit chemotaxis of polymorphonucleate leukocytes (hereinafter referred to as PMNs) and monocytes induced by the fractions of IL-8 and GRO-α. For this purpose, in order to isolate the PMNs from heparinized human blood, taken from healthy adult volunteers, mononucleates were removed by means of sedimentation on dextran (according to the procedure disclosed by W. J. Ming et al, J. Immunol., 138, 1469, 1987) and red blood cells by a hypotonic solution. The cell vitality was calculated by exclusion with Trypan blue, whilst the ratio of the circulating polymorphonucleates was estimated on the cytocentrifugate after staining with Diff Quick.\nHuman recombinant IL-8 (Pepro Tech) was used as stimulating agents in the chemotaxis experiments, giving practically identical results: the lyophilized protein was dissolved in a volume of HBSS containing 0.2% bovin serum albumin (BSA) so thus to obtain a stock solution having a concentration of 10^−5 M to be diluted in HBSS to a concentration of 10^−9 M, for the chemotaxis assays.\nDuring the chemotaxis assay (according to W. Falket et al., J. Immunol. Methods, 33, 239, 1980) PVP-free filters with a porosity of 5 μm and microchambers suitable for replication were used.\nThe compounds of formula (I) were evaluated at a concentration ranging between 10^−6 and 10^−10 M; for this purpose they were added, at the same concentration, both to the […] of the microchamber. Evaluation of the ability of the compounds of the invention of formula I to inhibit IL-8-induced chemotaxis of human monocytes was carried out according to the method disclosed by Van Damme J. et al. (Eur. J. Immunol., 19, 2367, 1989).\nBiological results of some representative compounds in the IL-8 induced PMN chemotaxis test are reported in table II (inhibition data, C=10^−8 M).", "units": {"inhibition at 0.01 µM": "%"}, "values": [{"molecule": "CC(=O)NS(=O)(=O)C(C)c1ccc(CC(C)C)cc1", "note": "(racemic) [Compound 47, (±)-1-(4-isobutylphenyl)ethane-N-acetyl sulfonamide]", "inhibition at 0.01 µM": "40 ± 17"}, {"molecule": "NS(=O)(=O)/C=C/c1cccc(C(=O)c2ccccc2)c1", "note": "[Compound 15, E-2-(3-benzoylphenyl) ethenesulfonamide]", "inhibition at 0.01 µM": "66 ± 10"}, {"molecule": "CC(C)Cc1ccc(/C=C/S(=O)(=O)O)cc1", "note": "[Compound 10, E-2-(4-isobutylphenyl)ethenesulfonic acid sodium salt]", "inhibition at 0.01 µM": "45 ± 4"}, {"molecule": "CC(c1cccc(C(=O)c2ccccc2)c1)S(=O)(=O)NCCCN(C)C", "note": "(racemic) [Compound 36, (±)-1-(3-benzoylphenyl)ethane-N-(N,N-dimethylaminopropyl) sulfonamide]", "inhibition at 0.01 µM": "49 ± 14"}, {"molecule": "C/C(=C\\S(N)(=O)=O)c1ccc(CC(C)C)cc1", "note": "[Compound 50, E-2-(4-isobutylphenyl)-2-methyl-ethenesulfonamide]", "inhibition at 0.01 µM": "32 ± 1"}, {"molecule": "CN(C)CCCNS(=O)(=O)/C=C/c1ccc(OS(=O)(=O)C(F)(F)F)cc1", "note": "[Compound 20, E-2-[4-(trifluoromethanesulfonyloxy)phenyl]ethene-(N,N-dimethylaminopropyl)sulfonamide]", "inhibition at 0.01 µM": "60 ± 1"}, {"molecule": "CC(C)C(=O)c1ccc(CS(N)(=O)=O)n1C", "note": "[Compound 30, (1-methyl-5-isobutirrylpyrrolyl)-1-methanesulfonamide]", "inhibition at 0.01 µM": "50 ± 1"}, {"molecule": "CC(C)Cc1ccc(/C=C/S(=O)(=O)NCCCN(C)C)cc1", "note": "[Compound 18, E-2-(4-isobutylphenyl)ethene(N,N-dimethylaminopropyl) sulfonamide]", "inhibition at 0.01 µM": "40 ± 1"}, {"molecule": "CC(C)Cc1ccc(/C=C/S(N)(=O)=O)cc1", "note": "[Compound 14, E-2-(4-isobutylphenyl) ethenesulfonamide]", "inhibition at 0.01 µM": "41 ± 17"}, {"molecule": "CC(C)Cc1ccc([C@@H](C)S(=O)(=O)O)cc1", "note": "[Compound 1, (−)-1-(4-isobutylphenyl) ethanesulfonic acid sodium salt]", "inhibition at 0.01 µM": "55 ± 7"}, {"molecule": "CC(=O)c1ccc(CS(=O)(=O)O)n1C", "note": "[Compound 7, (1-methyl-5-acetylpyrrolyl)-1-methanesulfonic acid sodium salt]", "inhibition at 0.01 µM": "35 ± 2"}, {"molecule": "CC(=O)c1ccc(CS(N)(=O)=O)n1C", "note": "[Compound 31, (1-methyl-5-acetylpyrrolyl)-1-methanesulfonamide]", "inhibition at 0.01 µM": "39 ± 4"}, {"molecule": "CC(c1cccc(C(=O)c2ccccc2)c1)S(=O)(=O)O", "note": "(racemic) [Compound 8, sodium salt]", "inhibition at 0.01 µM": "65 ± 4"}, {"molecule": "CN(C)CCCNS(=O)(=O)/C=C/c1ccc(NS(C)(=O)=O)cc1", "note": "[Compound 21, E-2-[4-(methanesulfonylamino)phenyl] ethene-(N,N-dimethylaminopropyl) sulfonamide]", "inhibition at 0.01 µM": "31 ± 6"}, {"molecule": "CC(C)Cc1ccc([C@H](C)S(=O)(=O)O)cc1", "note": "[Compound 2, (+)-1-(4-isobutylphenyl) ethanesulfonic acid sodium salt]", "inhibition at 0.01 µM": "35 ± 7"}]}, {"tested_on": "human PMNs", "assay": "IL-8 induced human PMN chemotaxis assay", "format": "cell-based", "conditions": "compounds marked * tested at c = 10^−7; human PMNs chemotaxis induced by IL-8 (100 ng/mL)", "units": {"inhibition at 0.1 µM": "%"}, "values": [{"molecule": "CS(=O)(=O)Nc1ccc(/C=C/S(N)(=O)=O)cc1", "note": "[Compound 17, E-2-[4-(methanesulfonylamino)phenyl] ethenesulfonamide]", "inhibition at 0.1 µM": "41 ± 17"}, {"molecule": "CNS(=O)(=O)/C=C/c1ccc(CC(C)C)cc1", "note": "[Compound 22, E-2-(4-isobutylphenyl)ethene-N-methyl sulfonamide]", "inhibition at 0.1 µM": "41 ± 9"}, {"molecule": "CNS(=O)(=O)C(C)c1ccc(CC(C)C)cc1", "note": "(racemic) [Compound 43, (±)-1-(4-isobutylphenyl)ethane-N-methyl sulfonamide]", "inhibition at 0.1 µM": "36 ± 15"}]}]}
